Molecular target: α4β1 (Homo sapiens, UniProt P05556+P13612)
Assay: α4β1 integrin inhibition, IC50
Assay type: binding
Details: read-out: α4β1 IC50

Sequence of α4β1 (P13612 34-1032): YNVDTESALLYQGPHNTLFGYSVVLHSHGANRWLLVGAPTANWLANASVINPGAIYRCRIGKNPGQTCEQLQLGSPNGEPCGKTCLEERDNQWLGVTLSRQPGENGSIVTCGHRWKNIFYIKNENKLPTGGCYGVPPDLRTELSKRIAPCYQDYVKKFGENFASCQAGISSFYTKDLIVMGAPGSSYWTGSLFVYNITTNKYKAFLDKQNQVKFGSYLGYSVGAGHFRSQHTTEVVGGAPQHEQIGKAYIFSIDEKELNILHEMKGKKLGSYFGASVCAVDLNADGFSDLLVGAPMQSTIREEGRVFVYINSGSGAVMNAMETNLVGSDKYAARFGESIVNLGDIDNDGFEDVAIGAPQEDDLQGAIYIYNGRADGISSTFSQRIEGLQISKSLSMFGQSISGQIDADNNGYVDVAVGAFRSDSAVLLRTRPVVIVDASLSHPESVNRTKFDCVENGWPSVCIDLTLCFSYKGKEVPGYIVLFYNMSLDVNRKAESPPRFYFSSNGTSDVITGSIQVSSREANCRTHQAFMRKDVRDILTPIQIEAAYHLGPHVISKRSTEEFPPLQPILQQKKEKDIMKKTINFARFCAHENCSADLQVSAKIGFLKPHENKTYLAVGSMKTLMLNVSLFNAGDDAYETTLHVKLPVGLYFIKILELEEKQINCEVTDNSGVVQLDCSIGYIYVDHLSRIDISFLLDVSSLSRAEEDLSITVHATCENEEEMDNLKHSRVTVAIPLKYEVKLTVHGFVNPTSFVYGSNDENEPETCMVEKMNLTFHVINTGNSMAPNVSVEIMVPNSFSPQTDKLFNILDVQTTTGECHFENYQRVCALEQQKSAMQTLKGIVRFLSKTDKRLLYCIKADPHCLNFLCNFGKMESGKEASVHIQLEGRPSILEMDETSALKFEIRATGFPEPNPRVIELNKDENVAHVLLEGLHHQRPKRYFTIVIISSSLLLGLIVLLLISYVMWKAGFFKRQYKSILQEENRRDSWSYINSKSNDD
Sequence of α4β1 (P05556 21-798): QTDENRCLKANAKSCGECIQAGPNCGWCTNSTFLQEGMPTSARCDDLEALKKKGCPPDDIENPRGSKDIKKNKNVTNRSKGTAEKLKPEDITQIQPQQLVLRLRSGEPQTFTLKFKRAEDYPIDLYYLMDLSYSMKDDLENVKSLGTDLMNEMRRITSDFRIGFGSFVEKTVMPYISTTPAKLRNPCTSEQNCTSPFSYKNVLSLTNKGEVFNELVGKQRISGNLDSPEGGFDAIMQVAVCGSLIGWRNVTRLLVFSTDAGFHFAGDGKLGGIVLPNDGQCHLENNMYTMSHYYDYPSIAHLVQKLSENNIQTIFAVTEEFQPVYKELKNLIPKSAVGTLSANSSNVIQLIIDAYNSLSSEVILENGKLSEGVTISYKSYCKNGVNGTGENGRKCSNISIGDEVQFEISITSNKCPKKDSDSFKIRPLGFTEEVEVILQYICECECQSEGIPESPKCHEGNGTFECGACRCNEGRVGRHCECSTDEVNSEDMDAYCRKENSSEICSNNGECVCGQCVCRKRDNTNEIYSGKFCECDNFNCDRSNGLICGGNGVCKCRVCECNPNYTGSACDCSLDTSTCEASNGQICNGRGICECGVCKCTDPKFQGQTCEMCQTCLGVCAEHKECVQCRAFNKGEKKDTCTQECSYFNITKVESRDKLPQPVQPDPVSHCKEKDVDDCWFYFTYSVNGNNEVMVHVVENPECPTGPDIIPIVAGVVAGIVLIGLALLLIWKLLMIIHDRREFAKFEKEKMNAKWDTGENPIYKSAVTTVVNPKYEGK

| IC50 | Compound |
| --- | --- |
| < 20 nM | Cc1cc(O)c(NC(=O)N[C@@H](CC(=O)O)c2cc(-c3cccc(OC(F)(F)F)c3)ccc2F)c(=O)n1C [1-595, sodium (S)-3-(3-(1,6-dimethyl-4-oxido-2-oxo-1,2-dihydropyridin-3-yl)ureido)-3-(4-fluoro-3′-(trifluoromethoxy)biphenyl-3-yl)propanoate] |
| < 20 nM | Cc1cc(-c2c(C)cccc2C)cc([C@H](CC(=O)O)NC(=O)Nc2c(O)cc(C)n(C)c2=O)c1 [1-597, sodium (S)-3-(3-(1,6-dimethyl-4-oxido-2-oxo-1,2-dihydropyridin-3-yl)ureido)-3-(2′,5,6′-trimethylbiphenyl-3-yl)propanoate] |
| < 20 nM | Cc1ccccc1-c1cccc([C@H](CC(=O)O)NC(=O)Nc2c(O)ccn(C)c2=O)c1 [1-598, sodium (S)-3-(3-(1-methyl-4-oxido-2-oxo-1,2-dihydropyridin-3-yl)ureido)-3-(2′-methylbiphenyl-3-yl)propanoate] |
| < 20 nM | Cc1ccccc1-c1cccc([C@H](CC(=O)O)NC(=O)Nc2c(O)cc(C)n(C)c2=O)c1 [1-599, sodium (S)-3-(3-(1,6-dimethyl-4-oxido-2-oxo-1,2-dihydropyridin-3-yl)ureido)-3-(2′-methylbiphenyl-3-yl)propanoate] |
| < 20 nM | Cc1cccc(C)c1-c1cc(F)cc([C@H](CC(=O)O)NC(=O)Nc2c(O)ccn(C)c2=O)c1 [1-600, sodium (S)-3-(5-fluoro-2′,6′-dimethylbiphenyl-3-yl)-3-(3-(1-methyl-4-oxido-2-oxo-1,2-dihydropyridin-3-yl)ureido)propanoate] |
| < 20 nM | COc1ccc(-c2c(C)cccc2C)cc1[C@H](CC(=O)O)NC(=O)Nc1c(O)ccn(C)c1=O [1-602, sodium (S)-3-(4-methoxy-2′,6′-dimethylbiphenyl-3-yl)-3-(3-(1-methyl-4-oxido-2-oxo-1,2-dihydropyridin-3-yl)ureido)propanoate] |
| < 20 nM | COc1cccc(-c2ccc(F)c([C@H](CC(=O)O)NC(=O)Nc3c(O)cc(C)n(C)c3=O)c2)c1 [1-603, sodium (S)-3-(3-(1,6-dimethyl-4-oxido-2-oxo-1,2-dihydropyridin-3-yl)ureido)-3-(4-fluoro-3′-methoxybiphenyl-3-yl)propanoate] |
| < 20 nM | COc1cccc(-c2cc(F)cc([C@H](CC(=O)O)NC(=O)Nc3c(O)ccn(C)c3=O)c2)c1 [1-604, sodium (S)-3-(5-fluoro-3′-methoxybiphenyl-3-yl)-3-(3-(1-methyl-4-oxido-2-oxo-1,2-dihydropyridin-3-yl)ureido)propanoate] |
| < 20 nM | COc1cccc(-c2cc(F)cc([C@H](CC(=O)O)NC(=O)Nc3c(O)cc(C)n(C)c3=O)c2)c1 [1-605, sodium (S)-3-(5-fluoro-3′-methoxybiphenyl-3-yl)-3-(3-(4-hydroxy-1,6-dimethyl-2-oxo-1,2-dihydropyridin-3-yl)ureido)propanoate] |
| < 20 nM | Cc1cc(O)c(NC(=O)N[C@@H](CC(=O)O)c2cc(F)cc(-c3cccc(OC(F)(F)F)c3)c2)c(=O)n1C [1-606, sodium (S)-3-(3-(1,6-dimethyl-4-oxido-2-oxo-1,2-dihydropyridin-3-yl)ureido)-3-(5-fluoro-3′-trifluoromethoxybiphenyl-3-yl)propanoate] |
| < 20 nM | Cc1noc(C)c1-c1ccc([C@H](CC(=O)O)NC(=O)Nc2c(O)ccn(C)c2=O)s1 [1-608, sodium (S)-3-(5-(3,5-dimethylisoxazol-4-yl)thiophen-2-yl)-3-(3-(1-methyl-4-oxido-2-oxo-1,2-dihydropyridin-3-yl)ureido)propanoate] |
| < 20 nM | Cc1noc(C)c1-c1cccc([C@H](CC(=O)O)NC(=O)Nc2c(O)cc(C)n(C)c2=O)c1 [1-609, sodium (S)-3-(3-(1,6-dimethyl-4-oxido-2-oxo-1,2-dihydropyridin-3-yl)ureido)-3-(3-(3,5-dimethylisoxazol-4-yl)phenyl)propanoate] |
| < 20 nM | Cc1cc(O)c(NC(=O)N[C@@H](CC(=O)O)c2cccc(-c3ccccc3)c2F)c(=O)n1C [1-610, sodium (S)-3-(3-(1,6-dimethyl-4-oxido-2-oxo-1,2-dihydropyridin-3-yl)ureido)-3-(2-fluorobiphenyl-3-yl)propanoate] |
| < 20 nM | Cc1ccccc1-c1cc([C@H](CC(=O)O)NC(=O)Nc2c(O)cc(C)n(C)c2=O)ccc1F [1-611, sodium (S)-3-(3-(1,6-dimethyl-4-oxido-2-oxo-1,2-dihydropyridin-3-yl)ureido)-3-(6-fluoro-2′-methylbiphenyl-3-yl)propanoate] |
| < 20 nM | Cc1ccccc1-c1cc([C@H](CC(=O)O)NC(=O)Nc2c(O)ccn(C)c2=O)ccc1F [1-612, sodium (S)-3-(6-fluoro-2′-methylbiphenyl-3-yl)-3-(3-(1-methyl-4-oxido-2-oxo-1,2-dihydropyridin-3-yl)ureido)propanoate] |
| < 20 nM | Cc1cc(O)c(NC(=O)N[C@@H](CC(=O)O)c2ccc(-c3ccc(F)cc3F)cc2)c(=O)n1C [1-622, sodium (S)-3-(2′,4′-difluorobiphenyl-4-yl)-3-(3-(1,6-dimethyl-4-oxido-2-oxo-1,2-dihydropyridin-3-yl)ureido)propanoate] |
| < 20 nM | CC(=O)c1cccc(-c2cccc(C(CC(=O)O)NC(=O)Nc3c(O)c(C)cn(C)c3=O)c2)c1 (centres unmarked) [1-626, sodium 3-(3′-acetylbiphenyl-3-yl)-3-(3-(1,5-dimethyl-4-oxido-2-oxo-1,2-dihydropyridin-3-yl)ureido)propanoate] |

The remaining lines, values behind:

| Compound | IC50 |
| --- | --- |
| Cn1ccc(O)c(NC(=O)N[C@@H](CC(=O)O)c2cc(-c3cccc(OC(F)(F)F)c3)ccc2F)c1=O [1-594, sodium (S)-3-(4-fluoro-3′-(trifluoromethoxy)biphenyl-3-yl)-3-(3-(1-methyl-4-oxido-2-oxo-1,2-dihydropyridin-3-yl)ureido)propanoate] | < 20 nM |
| COc1ccc(-c2ccccc2)cc1[C@H](CC(=O)O)NC(=O)Nc1c(O)ccn(C)c1=O [1-596, sodium (S)-3-(4-methoxybiphenyl-3-yl)-3-(3-(1-methyl-4-oxido-2-oxo-1,2-dihydropyridin-3-yl)ureido)propanoate] | < 20 nM |
| Cn1ccc(O)c(NC(=O)N[C@@H](CC(=O)O)c2ccc(-c3cccc(OC(F)(F)F)c3)s2)c1=O [1-601, sodium (S)-3-(3-(1-methyl-4-oxido-2-oxo-1,2-dihydropyridin-3-yl)ureido)-3-(5-(3-(trifluoromethoxy)phenyl)thiophen-2-yl)propanoate] | < 20 nM |
| Cn1ccc(O)c(NC(=O)N[C@@H](CC(=O)O)c2cc(F)cc(-c3cccc(OC(F)(F)F)c3)c2)c1=O [1-607, sodium (S)-3-(5-fluoro-3′-(trifluoromethoxy)biphenyl-3-yl)-3-(3-(1-methyl-4-oxido-2-oxo-1,2-dihydropyridin-3-yl)ureido)propanoate] | < 20 nM |
| Cn1ccc(O)c(NC(=O)N[C@@H](CC(=O)O)c2ccc(-c3ccccc3)s2)c1=O [1-613, sodium (S)-3-(3-(1-methyl-4-oxido-2-oxo-1,2-dihydropyridin-3-yl)ureido)-3-(5-phenylthiophen-2-yl)propanoate] | < 20 nM |
| Cn1ccc(O)c(NC(=O)N[C@@H](CC(=O)O)c2ccc(-c3cc(F)ccc3F)s2)c1=O [1-614, sodium (S)-3-(5-(2,5-difluorophenyl)thiophen-2-yl)-3-(3-(1-methyl-4-oxido-2-oxo-1,2-dihydropyridin-3-yl)ureido)propanoate] | < 20 nM |
| Cn1ccc(O)c(NC(=O)N[C@@H](CC(=O)O)c2cc(OC(F)(F)F)cc(-c3ccccc3)c2)c1=O [1-615, sodium (S)-3-(3-(1-methyl-4-oxido-2-oxo-1,2-dihydropyridin-3-yl)ureido)-3-(5-(trifluoromethoxy)biphenyl-3-yl)propanoate] | < 20 nM |
| Cc1ccccc1-c1ccc([C@H](CC(=O)O)NC(=O)Nc2c(O)ccn(C)c2=O)cc1 [1-616, sodium (S)-3-(3-(1-methyl-4-oxido-2-oxo-1,2-dihydropyridin-3-yl)ureido)-3-(2′-methylbiphenyl-4-yl)propanoate] | < 20 nM |
| Cn1ccc(O)c(NC(=O)N[C@@H](CC(=O)O)c2cc(-c3ccccc3)cc(C(F)(F)F)c2)c1=O [1-618, sodium (S)-3-(3-(1-methyl-4-oxido-2-oxo-1,2-dihydropyridin-3-yl)ureido)-3-(5-(trifluoromethyl)biphenyl-3-yl)propanoate] | > 200 nM |
| Cn1ccc(O)c(NC(=O)N[C@@H](CC(=O)O)c2ccc(-c3cccc(Cl)c3)s2)c1=O [1-619, sodium (S)-3-(5-(3-chlorophenyl)thiophen-2-yl)-3-(3-(1-methyl-4-oxido-2-oxo-1,2-dihydropyridin-3-yl)ureido)propanoate] | < 200 nM |
| Cn1ccc(O)c(NC(=O)N[C@@H](CC(=O)O)c2ccc(-c3cccc(F)c3)s2)c1=O [1-620, sodium (S)-3-(5-(3-fluorophenyl)thiophen-2-yl)-3-(3-(1-methyl-4-oxido-2-oxo-1,2-dihydropyridin-3-yl)ureido)propanoate] | < 200 nM |
| Cn1ccc(O)c(NC(=O)N[C@@H](CC(=O)O)c2ccc(-c3ccc(F)cc3F)cc2)c1=O [1-621, sodium (S)-3-(2′,4′-difluorobiphenyl-4-yl)-3-(3-(1-methyl-4-oxido-2-oxo-1,2-dihydropyridin-3-yl)ureido)propanoate] | < 20 nM |
| Cc1cn(C)c(=O)c(NC(=O)N[C@@H](CC(=O)O)c2ccc(-c3ccc(F)cc3F)cc2)c1O [1-623, sodium (S)-3-(2′,4′-difluorobiphenyl-4-yl)-3-(3-(1,5-dimethyl-4-oxido-2-oxo-1,2-di hydropyridin-3-yl)ureido)propanoate] | < 20 nM |
| Cc1ccccc1-c1cc([C@H](CC(=O)O)NC(=O)Nc2c(O)ccn(C)c2=O)ccc1OC(F)(F)F [1-624, sodium (S)-3-(3-(1-methyl-4-oxido-2-oxo-1,2-dihydropyridin-3-yl)ureido)-3-(2′-methyl-6-(trifluoromethoxy)biphenyl-3-yl)propanoate] | < 20 nM |
| Cn1ccc(O)c(NC(=O)N[C@@H](CC(=O)O)c2ccc(OC(F)(F)F)c(-c3ccccc3)c2)c1=O [1-625, sodium (S)-3-(3-(1-methyl-4-oxido-2-oxo-1,2-dihydropyridin-3-yl)ureido)-3-(6-(trifluoromethoxy)biphenyl-3-yl)propanoate] | < 200 nM |

Reference: US10875875B2, “Propionic acid derivatives and methods of use thereof” (Aviara Pharmaceuticals, Inc., priority 2017, dated 2020)
